# In ChEMBL document CHEMBL3885881, “DrugMatrix”:
# Organism: Rattus norvegicus
# Assay: DrugMatrix - Regimen: Daily Repeat
# Format: toxicity, organism-based, Sprague-Dawley
# Set-up: regimen Daily Repeat, gender Male, age 6-8 weeks
# Conditions: in vivo, po, route oral GAVAGE, vehicle 100 % WATER; for ABSOLUTE BASOPHIL / ABSOLUTE EOSINOPHIL / ABSOLUTE LYMPHOCYTE / ABSOLUTE MONOCYTE / ABSOLUTE SEGMENTED NEUTROPHIL / BASOPHIL / EOSINOPHIL / ERYTHROCYTE COUNT / HEMATOCRIT / HEMOGLOBIN / LEUKOCYTE COUNT / LYMPHOCYTE / MEAN CORPUSCULAR HEMOGLOBIN / MEAN CORPUSCULAR HEMOGLOBIN CONCENTRATION / MEAN CORPUSCULAR VOLUME / MONOCYTE / NEUTROPHIL / NUCLEATED RED BLOOD CELLS / PLATELET COUNT: tissue Blood; for ALANINE AMINOTRANSFERASE / ALBUMIN / ALKALINE PHOSPHATASE / ASPARTATE AMINOTRANSFERASE / BLOOD UREA NITROGEN / CARBON DIOXIDE / CHLORIDE / CHOLESTEROL / CREATINE PHOSPHOKINASE / CREATININE / GLUCOSE / LACTATE DEHYDROGENASE / LIPASE / PHOSPHORUS / POTASSIUM / SODIUM / TOTAL BILIRUBIN / TOTAL PROTEIN / URIC ACID: tissue Plasma
# [1] = 11 mg/kg, 120 h, dose level Low, time 5 day
# [2] = 40 mg/kg, 72 h, dose level High, time 3 day
# [3] = 40 mg/kg, 120 h, dose level High, time 5 day
structure (smiles),measurement,setting,value
CN(C)C(=O)Oc1cccc([N+](C)(C)C)c1.[Br-] [NEOSTIGMINE BROMIDE],ABSOLUTE BASOPHIL,[1],0 CELLS/uL
same,ABSOLUTE EOSINOPHIL,[1],28.67 CELLS/uL
same,ABSOLUTE LYMPHOCYTE,[1],4930.67 CELLS/uL
same,ABSOLUTE MONOCYTE,[1],109.33 CELLS/uL
same,ABSOLUTE SEGMENTED NEUTROPHIL,[1],798 CELLS/uL
same,BASOPHIL,[1],0%
same,EOSINOPHIL,[1],0.33%
same,ERYTHROCYTE COUNT,[1],5.49 x10E6/uL
same,HEMATOCRIT,[1],34.3%
same,HEMOGLOBIN,[1],13.23 G/DL
same,LEUKOCYTE COUNT,[1],5.87 x10E3/uL
same,LYMPHOCYTE,[1],83%
same,MEAN CORPUSCULAR HEMOGLOBIN,[1],24.1 pg
same,MEAN CORPUSCULAR HEMOGLOBIN CONCENTRATION,[1],38.57 G/DL
same,MEAN CORPUSCULAR VOLUME,[1],62.5 fL
same,MONOCYTE,[1],1.67%
same,NEUTROPHIL,[1],15%
same,NUCLEATED RED BLOOD CELLS,[1],0 /100WBC
same,PLATELET COUNT,[1],970 x10E3/uL
same,ALANINE AMINOTRANSFERASE,[1],54 u/L
same,ALBUMIN,[1],4 G/DL
same,ALKALINE PHOSPHATASE,[1],382.33 u/L
same,ASPARTATE AMINOTRANSFERASE,[1],83 u/L
same,BLOOD UREA NITROGEN,[1],14 mg/dL
same,CARBON DIOXIDE,[1],32.33 mmol/L
same,CHLORIDE,[1],99.33 MEQ/L
same,CHOLESTEROL,[1],67.33 mg/dL
same,CREATINE PHOSPHOKINASE,[1],225.33 u/L
same,CREATININE,[1],0.14 mg/dL
same,GLUCOSE,[1],155.33 mg/dL
same,LACTATE DEHYDROGENASE,[1],116 u/L
same,LIPASE,[1],9.33 u/L
same,PHOSPHORUS,[1],11.53 mg/dL
same,POTASSIUM,[1],5.88 MEQ/L
same,SODIUM,[1],144.8 MEQ/L
same,TOTAL BILIRUBIN,[1],0.17 mg/dL
same,TOTAL PROTEIN,[1],5.8 G/DL
same,URIC ACID,[1],0.8 mg/dL
same,ABSOLUTE BASOPHIL,[2],0 CELLS/uL
same,ABSOLUTE EOSINOPHIL,[2],29.33 CELLS/uL
same,ABSOLUTE LYMPHOCYTE,[2],8073 CELLS/uL
same,ABSOLUTE MONOCYTE,[2],28.67 CELLS/uL
same,ABSOLUTE SEGMENTED NEUTROPHIL,[2],702.33 CELLS/uL
same,BASOPHIL,[2],0%
same,EOSINOPHIL,[2],0.33%
same,ERYTHROCYTE COUNT,[2],5.28 x10E6/uL
same,HEMATOCRIT,[2],32.2%
same,HEMOGLOBIN,[2],12.53 G/DL
same,LEUKOCYTE COUNT,[2],8.83 x10E3/uL
same,LYMPHOCYTE,[2],91.33%
same,MEAN CORPUSCULAR HEMOGLOBIN,[2],23.7 pg
same,MEAN CORPUSCULAR HEMOGLOBIN CONCENTRATION,[2],38.93 G/DL
same,MEAN CORPUSCULAR VOLUME,[2],60.93 fL
same,MONOCYTE,[2],0.33%
same,NEUTROPHIL,[2],8%
same,NUCLEATED RED BLOOD CELLS,[2],0 /100WBC
same,PLATELET COUNT,[2],857.33 x10E3/uL
same,ALANINE AMINOTRANSFERASE,[2],53.67 u/L
same,ALBUMIN,[2],3.97 G/DL
same,ALKALINE PHOSPHATASE,[2],316.33 u/L
same,ASPARTATE AMINOTRANSFERASE,[2],90.33 u/L
same,BLOOD UREA NITROGEN,[2],13.33 mg/dL
same,CARBON DIOXIDE,[2],31.67 mmol/L
same,CHLORIDE,[2],100.67 MEQ/L
same,CHOLESTEROL,[2],85 mg/dL
same,CREATINE PHOSPHOKINASE,[2],289 u/L
same,CREATININE,[2],0.15 mg/dL
same,GLUCOSE,[2],135.33 mg/dL
same,LACTATE DEHYDROGENASE,[2],137.33 u/L
same,LIPASE,[2],9 u/L
same,PHOSPHORUS,[2],11.43 mg/dL
same,POTASSIUM,[2],6.3 MEQ/L
same,SODIUM,[2],143.1 MEQ/L
same,TOTAL BILIRUBIN,[2],0.2 mg/dL
same,TOTAL PROTEIN,[2],6.03 G/DL
same,URIC ACID,[2],0.83 mg/dL
same,ABSOLUTE BASOPHIL,[3],0 CELLS/uL
same,ABSOLUTE EOSINOPHIL,[3],26.33 CELLS/uL
same,ABSOLUTE LYMPHOCYTE,[3],8117.33 CELLS/uL
same,ABSOLUTE MONOCYTE,[3],169.67 CELLS/uL
same,ABSOLUTE SEGMENTED NEUTROPHIL,[3],1053.33 CELLS/uL
same,BASOPHIL,[3],0%
same,EOSINOPHIL,[3],0.33%
same,ERYTHROCYTE COUNT,[3],5.39 x10E6/uL
same,HEMATOCRIT,[3],33.9%
same,HEMOGLOBIN,[3],13 G/DL
same,LEUKOCYTE COUNT,[3],9.37 x10E3/uL
same,LYMPHOCYTE,[3],87%
same,MEAN CORPUSCULAR HEMOGLOBIN,[3],24.13 pg
same,MEAN CORPUSCULAR HEMOGLOBIN CONCENTRATION,[3],38.37 G/DL
same,MEAN CORPUSCULAR VOLUME,[3],62.93 fL
same,MONOCYTE,[3],1.67%
same,NEUTROPHIL,[3],11%
same,NUCLEATED RED BLOOD CELLS,[3],0.33 /100WBC
same,PLATELET COUNT,[3],1139.67 x10E3/uL
same,ALANINE AMINOTRANSFERASE,[3],52.33 u/L
same,ALBUMIN,[3],3.97 G/DL
same,ALKALINE PHOSPHATASE,[3],386 u/L
same,ASPARTATE AMINOTRANSFERASE,[3],89.67 u/L
same,BLOOD UREA NITROGEN,[3],15.33 mg/dL
same,CARBON DIOXIDE,[3],32.33 mmol/L
same,CHLORIDE,[3],102.33 MEQ/L
same,CHOLESTEROL,[3],79.33 mg/dL
same,CREATINE PHOSPHOKINASE,[3],258 u/L
same,CREATININE,[3],0.16 mg/dL
same,GLUCOSE,[3],148.67 mg/dL
same,LACTATE DEHYDROGENASE,[3],117.33 u/L
same,LIPASE,[3],9.33 u/L
same,PHOSPHORUS,[3],11.17 mg/dL
same,POTASSIUM,[3],6.13 MEQ/L
same,SODIUM,[3],148.3 MEQ/L
same,TOTAL BILIRUBIN,[3],0.2 mg/dL
same,TOTAL PROTEIN,[3],5.87 G/DL
same,URIC ACID,[3],0.43 mg/dL
